Reference: ChEMBL document CHEMBL1141401, “Structure-selectivity investigations of D2-like receptor ligands by CoMFA and CoMSIA guiding the discovery of D3 selective PET radioligands” (J Med Chem, 2007)

Legend:
[1] = target: T1, D(2) dopamine receptor (Homo sapiens, UniProt P14416)
Description: Binding affinity to dopamine D2

[2] = target: T2, D(3) dopamine receptor (Homo sapiens, UniProt P35462); assay: biochemical
Description: (§1) Displacement of [3H]spiperone from human dopamine D3 expressed in CHO cell membrane

[3] = target: T3, D(4) dopamine receptor (Homo sapiens, UniProt P21917); assay: biochemical
T3 sequence (P21917 whole entry): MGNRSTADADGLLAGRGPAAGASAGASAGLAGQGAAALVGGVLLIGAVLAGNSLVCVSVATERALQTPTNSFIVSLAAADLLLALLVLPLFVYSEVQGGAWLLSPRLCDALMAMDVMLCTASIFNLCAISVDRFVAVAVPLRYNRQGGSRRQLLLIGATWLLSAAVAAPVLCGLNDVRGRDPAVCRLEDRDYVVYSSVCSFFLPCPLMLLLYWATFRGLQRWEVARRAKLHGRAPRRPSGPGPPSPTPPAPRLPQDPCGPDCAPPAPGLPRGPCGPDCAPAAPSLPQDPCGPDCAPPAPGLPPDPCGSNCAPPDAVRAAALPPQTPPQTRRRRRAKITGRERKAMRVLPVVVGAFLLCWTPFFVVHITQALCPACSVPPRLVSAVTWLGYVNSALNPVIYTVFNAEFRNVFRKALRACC
Description: Displacement of [3H]spiperone from human dopamine D4.4 expressed in CHO cell membrane

[4] = target: T2, D(3) dopamine receptor
Description: as §1

[5] = target: D(1A) dopamine receptor (Sus scrofa, UniProt P50130); assay: Displacement of [3H][…] from porcine dopamine D1 in porcine striatal membrane; format: cell membranes, Striatum
[6] = target: T1, D(2) dopamine receptor; assay: Displacement of [3H]spiperone from human dopamine D2(long) expressed in CHO cell membrane
[7] = target: T1, D(2) dopamine receptor; assay: Displacement of [3H]spiperone from human dopamine D2(short) expressed in CHO cell membrane
[8] = target: T4, 5-hydroxytryptamine receptor 1A (Homo sapiens, UniProt P08908); assay: Displacement of [3H]8-OH-DPAT from human 5HT1A receptor expressed in CHO cells; format: cell-based
T4 sequence (P08908 whole entry): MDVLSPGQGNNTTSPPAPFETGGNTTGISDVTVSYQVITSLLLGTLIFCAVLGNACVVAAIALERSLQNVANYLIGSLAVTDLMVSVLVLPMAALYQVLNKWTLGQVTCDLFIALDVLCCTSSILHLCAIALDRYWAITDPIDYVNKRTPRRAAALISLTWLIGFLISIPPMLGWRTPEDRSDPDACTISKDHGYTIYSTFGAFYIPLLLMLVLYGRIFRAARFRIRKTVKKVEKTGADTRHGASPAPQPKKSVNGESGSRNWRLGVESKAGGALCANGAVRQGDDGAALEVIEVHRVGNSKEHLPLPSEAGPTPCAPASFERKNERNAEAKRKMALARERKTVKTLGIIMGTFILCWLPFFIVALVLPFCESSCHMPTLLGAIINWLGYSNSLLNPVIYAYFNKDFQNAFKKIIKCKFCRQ

[9] = target: Serotonin 2 (5-HT2) receptor (Homo sapiens, UniProt P41595+P28223+P28335); assay: Displacement of [3H]ketanserin from human 5HT2 receptor expressed in CHO cells; format: cell-based

T1 sequence (P14416 whole entry): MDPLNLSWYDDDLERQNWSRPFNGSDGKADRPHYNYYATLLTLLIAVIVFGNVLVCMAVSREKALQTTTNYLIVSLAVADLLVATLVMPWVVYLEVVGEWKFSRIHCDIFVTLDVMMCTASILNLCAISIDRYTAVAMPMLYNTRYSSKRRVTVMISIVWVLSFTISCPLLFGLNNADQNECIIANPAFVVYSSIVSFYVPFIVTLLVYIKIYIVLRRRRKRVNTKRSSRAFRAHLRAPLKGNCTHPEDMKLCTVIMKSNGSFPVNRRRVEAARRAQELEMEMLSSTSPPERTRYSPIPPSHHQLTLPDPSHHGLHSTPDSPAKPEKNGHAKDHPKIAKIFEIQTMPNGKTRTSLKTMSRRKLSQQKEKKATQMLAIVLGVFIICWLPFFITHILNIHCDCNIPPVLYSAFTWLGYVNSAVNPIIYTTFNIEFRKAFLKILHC
T2 sequence (P35462 whole entry): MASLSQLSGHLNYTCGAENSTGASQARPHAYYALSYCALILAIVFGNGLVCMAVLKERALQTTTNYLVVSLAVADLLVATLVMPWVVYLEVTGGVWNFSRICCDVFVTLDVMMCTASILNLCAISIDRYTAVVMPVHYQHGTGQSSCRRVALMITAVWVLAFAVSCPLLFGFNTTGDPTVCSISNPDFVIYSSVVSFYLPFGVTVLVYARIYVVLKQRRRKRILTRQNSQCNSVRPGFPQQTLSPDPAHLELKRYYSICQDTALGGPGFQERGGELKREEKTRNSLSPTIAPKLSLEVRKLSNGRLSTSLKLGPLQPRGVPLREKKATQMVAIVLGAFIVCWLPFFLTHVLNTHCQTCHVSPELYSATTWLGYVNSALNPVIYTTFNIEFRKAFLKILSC
D(1A) dopamine receptor, sequence (P50130 whole entry): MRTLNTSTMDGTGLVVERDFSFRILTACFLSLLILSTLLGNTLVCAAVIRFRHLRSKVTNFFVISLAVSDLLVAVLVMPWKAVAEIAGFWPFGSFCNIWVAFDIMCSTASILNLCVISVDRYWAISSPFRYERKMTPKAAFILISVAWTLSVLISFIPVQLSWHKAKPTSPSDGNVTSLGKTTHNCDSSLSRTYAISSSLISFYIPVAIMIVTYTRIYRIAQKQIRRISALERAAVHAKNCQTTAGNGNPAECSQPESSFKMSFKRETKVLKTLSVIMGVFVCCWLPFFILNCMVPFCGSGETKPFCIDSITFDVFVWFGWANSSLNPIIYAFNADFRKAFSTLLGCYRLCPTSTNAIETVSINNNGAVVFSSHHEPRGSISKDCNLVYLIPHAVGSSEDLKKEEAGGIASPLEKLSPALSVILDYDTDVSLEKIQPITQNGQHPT

SMILES	Ki [1] [nM]	Ki [2] [nM]	Ki [3] [nM]	further results
O=C(NCCCCN1CCN(c2ccccc2Cl)CC1)c1ccc2ccccc2c1	457	1	200	–
CCCc1c(C(=O)NCCCCN2CCN(c3ccccc3OC)CC2)nnn1Cc1ccc(OC)cc1	42.7	12.9	129	–
CCCc1c(C(=O)NCCCCN2CCN(c3ccccc3OC)CC2)nnn1Cc1ccccc1	57.5	11	302	–
Clc1ccc(N2CCN(Cc3cnn4c(I)cccc34)CC2)cc1	7590	2690	–	–
O=C(NCCCCN1CCN(c2ccccc2Cl)CC1)c1ccc(Cl)cc1	468	1.7	282	–
c1ccc(C2CCN(Cc3cnn(-c4ccccc4)c3)CC2)cc1	38	33.1	0.589	–
COc1ccccc1N1CCN(CCCCNC(=O)c2ccc(-c3ccc([18F])nc3)cc2)CC1	–	0.45	34	Ki [5]: 1300 nM; Ki [6]: 15 nM; Ki [7]: 12 nM; Ki [8]: 21 nM; Ki [9]: 760 nM
c1ccc(C2CCN(Cc3cn(-c4ccccc4)nn3)CC2)cc1	219	93.3	3.24	–
COc1ccc(Cn2nnc(C(=O)NCCCCCN3CCN(c4cccc(Cl)c4Cl)CC3)c2C)cc1	9.12	33.9	288	–
Cc1c(C(=O)NCCCCCN2CCN(c3cccc(Cl)c3Cl)CC2)nnn1Cc1ccccc1	10	8.51	251	–
OCc1ccc2c(CN3CCN(c4ccc(Cl)cc4)CC3)cnn2c1	27500	–	19.5	–
Cc1c(C(=O)NCCCCN2CCN(c3cccc(Cl)c3Cl)CC2)nnn1Cc1ccccc1	38.9	4.27	282	–
O=C(NCCCCN1CCN(c2ccccc2Cl)CC1)c1ccc(-c2ccccc2)cc1	129	0.28	240	–
O=C(NCCCCN1CCN(c2cccc(Cl)c2Cl)CC1)c1cc2cc(Br)ccc2o1	10000	3.47	3090	–
Cc1cccc2c(CN3CCN(c4ccc(Cl)cc4)CC3)cnn12	–	3720	–	–
CCCc1c(C(=O)NCCCCN2CCN(c3cccc(Cl)c3Cl)CC2)nnn1Cc1ccccc1	14.1	2.4	219	–

The next lines start with results.

Ki [1] [nM]	Ki [2] [nM]	Ki [3] [nM]	SMILES	further results
4.9	15.1	41.7	COc1ccccc1N1CCN(CCCCCNC(=O)c2nnn(Cc3ccccc3Br)c2C)CC1	–
2290	0.741	603	O=C(NCCCCN1CCN(c2cccc(Cl)c2Cl)CC1)c1cc2cc(Br)ccc2[nH]1	–
339	0.355	631	N#Cc1ccc2cc(C(=O)NCCCCN3CCN(c4cccc(Cl)c4Cl)CC3)[nH]c2c1	–
67.6	–	44.7	COc1ccccc1N1CCN(CCCCNC(=O)c2cc3cc(C#N)ccc3s2)CC1	Ki [4]: 0.457 nM
200	0.38	151	C#Cc1ccc2cc(C(=O)NCCCCN3CCN(c4ccccc4OC)CC3)sc2c1	–
110	0.245	15.8	COc1ccccc1N1CCN(CCCCNC(=O)c2cc3cc(Br)ccc3[nH]2)CC1	–
158	–	39.8	COc1ccccc1N1CCN(CCCCNC(=O)c2cc3ccc(C#N)cc3[nH]2)CC1	Ki [4]: 0.251 nM
141	0.575	24	COc1ccccc1N1CCN(CCCCNC(=O)c2cc3cc(C#N)ccc3[nH]2)CC1	–
17	87.1	269	COc1ccc(Cn2nnc(C(=O)NCCCCCN3CCN(c4ccccc4OC)CC3)c2C)cc1	–
5.25	7.41	39.8	CCCc1c(C(=O)NCCCCCN2CCN(c3ccccc3OC)CC2)nnn1Cc1ccccc1Br	–
407	0.389	30.9	C#Cc1ccc2sc(C(=O)NCCCCN3CCN(c4ccccc4OC)CC3)cc2c1	–
282	3.09	170	COc1ccc(C(=O)NCCCCN2CCN(c3ccccc3Cl)CC2)cc1OC	–
9.33	15.8	158	COc1ccccc1N1CCN(CCCCCNC(=O)c2nnn(Cc3ccccc3)c2C)CC1	–
–	0.37	28	COc1ccccc1N1CCN(CCCCNC(=O)c2ccc(-c3cccc([18F])n3)cc2)CC1	Ki [5]: 870 nM; Ki [6]: 27 nM; Ki [7]: 16 nM; Ki [8]: 16 nM; Ki [9]: 450 nM
95.5	–	17	COc1ccccc1N1CCN(CCCCNC(=O)c2cc3cc(Br)ccc3o2)CC1	Ki [4]: 0.692 nM
229	67.6	977	COc1ccccc1N1CCN(CCCCNC(=O)c2nnn(Cc3ccccc3)c2C)CC1	–
–	0.661	–	O=C(NCCCCN1CCN(c2cccc(Cl)c2Cl)CC1)c1cc2ccccc2[nH]1	–
–	4.27	–	COc1ccccc1N1CCN(CCCCNC(=O)c2cc3cc(C#N)ccc3o2)CC1	–
61.7	32.4	91.2	COc1ccccc1N1CCN(CCCCNC(=O)c2nnn(Cc3ccccc3Br)c2C)CC1	–
21.9	3.47	75.9	CCCc1c(C(=O)NCCCCN2CCN(c3ccccc3OC)CC2)nnn1Cc1ccccc1Br	–
55	28.8	282	COc1ccc(Cn2nnc(C(=O)NCCCCN3CCN(c4ccccc4OC)CC3)c2C)cc1	–
